# From patent publication US6316500A, “Aliphatically unsaturated hydroxy benzoates and preservative compositions thereof” (ISP Investments Inc., priority 1999, dated 2001)
# Key:
# Assay type in all cases: cell-based
# Details in all cases: 0.5% preservative in emulsion
# [1] = system: E. coli 8739; assay: Activity test: preservative challenge test in emulsion, E. coli 8739
# Method: (§1) The emulsion was prepared by separately mixing components in phase A and phase B at 75-80° C. for 15 minutes. The phases were then combined and mixed for another 10 minutes and cooled to 45° C. with stirring. Preservative was then added followed by citric acid to adjust pH to from abut 6.5 to 7.5. Stirring of the resulting mixture was continued until a temperature of 30° C. was reached. The activity tests were carried out using the following microorganisms: A. niger, B. cepacia, C. albicans, E. coli, P. aeruginosa and S. aureus. 50 g aliquots of the test emulsion containing various amounts of the preservative admixture as reported in Tables I-V were inoculated with approximately 10^7 -10^8 of the test organisms. The test samples then were stirred to disperse the challenge inoculum. The samples were incubated and assayed at 48 hours, 7, 14, 21 and 28 days. The assays were performed on 1 g, of the test sample by serially diluting 10^3 to 10^6 of the original concentration. The plating medium for bacteria was Letheen agar and for fungi it was low pH Mycophil agar with Tween 20. Each plated sample was incubated for 48 hours at 37° C. for bacteria, 5 days at 25° C. for mold and 3 days at 25° C. for fungi. After incubation, readings of the number of colonies per milliliter (cfu/ml) were made results were determined, as reported in associated Tables IA-VA. At 21 days the test product was reinoculated with half of the original inoculum.
# [2] = system: B. cepacia 25416; assay: Activity test: preservative challenge test in emulsion, B. cepacia 25416
# Method: as §1
# [3] = system: S. aureus 6538; assay: Activity test: preservative challenge test in emulsion, S. aureus 6538
# Method: as §1
# [4] = system: C. albicans 10231; assay: Activity test: preservative challenge test in emulsion, C. albicans 10231
# Method: as §1
# [5] = system: P. aeruginosa 9027; assay: Activity test: preservative challenge test in emulsion, P. aeruginosa 9027
# Method: as §1
# [6] = system: A. niger 16404; assay: Activity test: preservative challenge test in emulsion, A. niger 16404
# Method: as §1
# [7] = 28 days, reinoculated at 21 days
smiles,measurement,setting,value
"CC=CC=CCOC(=O)c1ccc(O)cc1O [2,4-Hexadienyl-2,4-dihydroxybenzoate, 2,4-Hexadienyl-2,4-Dihydroxybenzoate]","number of colonies per milliliter, 48 hr",[1]; 48 hr,< 10 cfu/ml
same,"number of colonies per milliliter, 7 days",[1]; 7 days,< 10 cfu/ml
same,"number of colonies per milliliter, 14 days",[1]; 14 days,< 10 cfu/ml
same,"number of colonies per milliliter, 21 days",[1]; 21 days,< 10 cfu/ml
same,"number of colonies per milliliter, 28 days",[1]; [7],< 10 cfu/ml
same,"number of colonies per milliliter, 48 hr",[2]; 48 hr,< 10^6 cfu/ml
same,"number of colonies per milliliter, 7 days",[2]; 7 days,< 10^6 cfu/ml
same,"number of colonies per milliliter, 14 days",[2]; 14 days,< 10^6 cfu/ml
same,"number of colonies per milliliter, 21 days",[2]; 21 days,< 10^6 cfu/ml
same,"number of colonies per milliliter, 28 days",[2]; [7],< 10^6 cfu/ml
same,"number of colonies per milliliter, 48 hr",[3]; 48 hr,< 10 cfu/ml
same,"number of colonies per milliliter, 7 days",[3]; 7 days,< 10 cfu/ml
same,"number of colonies per milliliter, 14 days",[3]; 14 days,< 10 cfu/ml
same,"number of colonies per milliliter, 21 days",[3]; 21 days,< 10 cfu/ml
same,"number of colonies per milliliter, 28 days",[3]; [7],< 10 cfu/ml
same,"number of colonies per milliliter, 48 hr",[4]; 48 hr,< 10 cfu/ml
same,"number of colonies per milliliter, 7 days",[4]; 7 days,< 10 cfu/ml
same,"number of colonies per milliliter, 14 days",[4]; 14 days,< 10 cfu/ml
same,"number of colonies per milliliter, 21 days",[4]; 21 days,< 10 cfu/ml
same,"number of colonies per milliliter, 28 days",[4]; [7],< 10 cfu/ml
same,"number of colonies per milliliter, 48 hr",[5]; 48 hr,< 10 cfu/ml
same,"number of colonies per milliliter, 7 days",[5]; 7 days,< 10 cfu/ml
same,"number of colonies per milliliter, 14 days",[5]; 14 days,< 10 cfu/ml
same,"number of colonies per milliliter, 21 days",[5]; 21 days,< 10 cfu/ml
same,"number of colonies per milliliter, 28 days",[5]; [7],< 10 cfu/ml
same,"number of colonies per milliliter, 48 hr",[6]; 48 hr,4200 cfu/ml
same,"number of colonies per milliliter, 7 days",[6]; 7 days,30 cfu/ml
same,"number of colonies per milliliter, 14 days",[6]; 14 days,< 10 cfu/ml
same,"number of colonies per milliliter, 21 days",[6]; 21 days,< 10 cfu/ml
same,"number of colonies per milliliter, 28 days",[6]; [7],< 10 cfu/ml
